Results published in patent publication US10619209B2, “Serotonin transporter gene and treatment of opioid-related disorders” (University of Virginia Patent Foundation, priority 2008, dated 2020).
Structures can show the parent of a compound that is named as a salt.

How the values were obtained:
[1] = alcohol trials; 50 mg/day; cited from earlier work
[2] = system: alcohol-dependent individuals; assay: 12-week randomized controlled pharmacotherapy trial of ondansetron by 5'-HTTLPR genotype (Example 3); type: in vivo, human; conditions: for mean (SEM) DDD reduction from baseline across the treatment period: ondansetron 4 μg/kg b.i.d., 12 weeks
Text: In a pre-planned interim analysis, data were examined for the 226 alcohol-dependent individuals (aged 18-65 years) enrolled into the 12-week randomized controlled pharmacotherapy trial to determine the effect of ondansetron on drinking among individuals who varied on allelic difference at the 5-HTT gene and age of alcoholism onset. All these individuals were enrolled at the University of Texas Health Science Center at San Antonio. Briefly, the study design was 2 (LL vs. LS/SS)×2 (early onset vs. late onset)×2 (ondansetron 4 μg/kg b.i.d. vs. placebo). The inferential results below are for the severity of drinking—drinks/drinking day (DDD).
Demographic data were that: 74% were male and 26% female; 48% were early-onset alcoholics and 52% late-onset alcoholics, and 20% were Hispanic and 80% White. There were no significant differences (P>0.05) on demographics between the treatment groups. Baseline mean (SD) DDD (past 90 days) were also similar for the ondansetron 4 μg/kg b.i.d. and placebo groups—9.83 (4.63) vs. 9.85 (4.49), respectively. The inferential analyses were conducted on all randomized subjects according to the intent-to-treat principle. The analytic plan was first to calculate the DDD in each week. We then used the difference between weekly DDD and the baseline DDD (in the past 90 days) as repeat measures. A mixed-model approach (SAS PROC MIXED) was used to study the effect of treatment, genotype (LL vs. LS/SS), treatment and genotype interaction, age, age of onset (early vs. late), gender, and age at onset of problem drinking, adjusting for the baseline DDD level. Also included is a random slope for time to study the variation in the time trend of the weekly DDD.

[3] = system: alcohol-dependent men and women; assay: 12-week treatment trial of ondansetron by 5'-HTTLPR and rs1042173 genotype (Example 4); type: in vivo, human
Description: 289 alcohol-dependent men and women enrolled in a 12-week treatment trial in which they received either ondansetron (4 μg/kg) or placebo. All subjects also received weekly cognitive behavioral therapy as their standardized psychosocial treatment. Genotyping was conducted on all subjects. Mixed-effects models were used to study the effect of treatment and genotype and their interaction for each of the primary drinking outcomes. The models included random intercept and random slope and were adjusted for covariates such as participants' average 90-day drinking levels prior to the study, age, gender, ethnicity (Caucasian and Hispanic), and center. A variance-components covariance matrix was used to model different variances for the intercept and slope and a covariance between them. Interactions of treatment, genotype, age, and center were first included in the models. They were excluded from the final models if not significant.

[4] = cited from earlier work
[5] = placebo vs. treatment, LL genotype
[6] = placebo vs. treatment, LS/SS genotype
[7] = treatment (ondansetron) group, LS/SS vs. LL

O=C1CC[C@@]2(O)[C@H]3Cc4ccc(O)c5c4[C@@]2(CCN3CC2CC2)[C@H]1O5 [naltrexone, 17-(Cyclopropylmethyl)-4,5a-epoxy-3,14-dihydroxymorphinan-6-one hydrochloride]
individuals unable to tolerate the dose [1]: about 15%

Cc1nccn1CC1CCc2c(c3ccccc3n2C)C1=O (centres unmarked) [ondansetron, 9-methyl-3-[(2-methyl-1H-imidazol-1-yl)methyl]-1,2,3,9-tetrahydrocarbazol-4-one]
mean (SEM) DDD reduction from baseline across the treatment period ([2]; LL genotype): 5.70 (0.64) DDD | mean (SEM) DDD reduction from baseline across the treatment period ([2]; LS/SS genotype): 3.45 (0.44) DDD | Cohen's d [2, 5]: 0.08 | Estimate (cell contrast on DDD) [2, 5]: 2.16 DDD | Cohen's d [2, 6]: 0.04 | Estimate (cell contrast on DDD) [2, 6]: −0.80 DDD | Cohen's d [2, 7]: 0.10 | Estimate (cell contrast on DDD) [2, 7]: 2.25 DDD | mean difference in DDD ([3]; LL genotype, treatment group vs placebo group): −1.50 DDD | mean difference in DDD ([3]; treated with ondansetron 4 μg/kg, LL vs LS/SS genotype): −1.41 DDD | mean difference in DDD ([3]; treated with ondansetron 4 μg/kg, TT vs TG/GG genotype of rs1042173): −1.31 DDD

CC1(C)O[C@@H]2[C@@H](CO[C@@]3(COS(N)(=O)=O)OC(C)(C)O[C@@H]23)O1 [topiramate, 2,3:4,5-Bis-O-(1-methylethylidene)-beta-D-fructopyranose sulfamate]
individuals reporting cognitive impairment ([4]; general population): 2.4% | occurrence rate of cognitive impairment ([4]; substance abuse field): about 18.7%
